Results: patent EP1795186B1, “Flupirtin comprising medicament formulation with a controlled release of the active agent” (TEVA GmbH, priority 2005, dated 2007)

Assay: Solubility in hydrochloric acid (gastric juice)
Assay type: physicochemical

Löslichkeit in Salzsäure (Magensaft): löslich
Structure (SMILES): CCOC(=O)Nc1ccc(NCc2ccc(F)cc2)nc1N [Flupirtinmaleat]
